# According to patent publication US5225404A, “Methods of treating colon tumors with tumor-inhibiting camptothecin compounds” (New York University, priority 1989, dated 1993):
# Entries after “also recorded” stand apart in the source; their conditions may differ. Structures can show the parent of a compound that is named as a salt. Where two headings read alike, the source gives them in different places.
# Key:
# [1] = overall toxicity in tumor-bearing mice (Example 7); type: in vivo
# From the text: Another important feature of the method provided by the present invention relates to the relatively low or no apparent overall toxicity of the camptothecin compounds administered in accordance herein. Overall toxicity can be judged using various criteria. For example, loss of body weight in a subject over 10% of the initially recorded body weight (i.e., before treatment) can be considered as one sign of toxicity. In addition, loss of overall mobility and activity and signs of diarrhea or cystitis in a subject can also be interpreted as evidence of toxicity. In one of the examples which follow, the overall toxicity of the camptothecin compounds was evaluated.
# The overall toxicity of the colon tumor-inhibiting camptothecin compounds was next to be evaluated at various dosages. The overall toxicity of 9-amino-20(RS)-camptothecin, 10,11-methylenedioxy-camptothecin and the sodium salt of 10,11-methylenedioxy-camptothecin was evaluated in this example as follows: tumor fragments were implanted under the skin of 5-6 mice in each group beginning on day 0. The mice were injected with one of the compounds beginning on day 7 after visible signs that malignant growth of the implanted tumor had occurred. The injections of the compound were given at predetermined doses of 10 or 12.5 mg/kg of body weight per week for a total of 3-6 weeks. Injections were daily or given two times per week. The body weights of the controls (mice with tumors, injected with placebo) and that of the drug-treated mice were taken two times each week and recorded. Overall toxicity was determined in the following way: loss of body weight after treatment in a subject of more than 10% over the initial body weight of the subject recorded at the beginning of the experiment, was considered a sign of toxicity. The mice were also monitored for their ability to regain the lost body weight. Regaining entirely its lost body weight would therefore be a sign of low toxicity in a subject. In addition, mice were monitored for their overall mobility and activity as well as for signs of diarrhea or cystitis. Mobility/activity was judged on a sliding scale of 1 to 5. That is, a score of 1 indicated good mobility/activity and a score of 5 indicated poor mobility/activity. Diarrhea and cystitis were judged on a plus/minus basis.
# [2] = test system: human colon cancer HT-29; experiment: HT-29 human colon cancer xenograft in immunodeficient mice (Example 2); type: in vivo, human (xenograft in immunodeficient NIH-1 mice)
# From the text: (§1) In these four examples, three xenograft lines of human colon cancer were selected to test the effectiveness of various drugs or compounds in treating human colon cancer. These xenograft lines included the following: (1) A moderate-to-poorly differentiated human colon cancer HT-29; (2) poorly differentiated colon cancer lines designated CASE; and (3) SW48. Liebowitz, A. et al., Cancer Res. 36:4562 (1976); and Fogh, J., et al., Human Tumor Cells […], J. Fogh, ed. Plenum Press, New York, pp. 115-159 (1975). The HT-29, CASE and SW48 cell lines were implanted into immunodeficient NIH-1 mice. Each control or drug-treated group included 6 males. Tumor fragments were implanted on day 0. For each implant, 50 mg of wet weight finely minced tumor tissue in 0.5 ml EMEM (Gibco, Grand Island, N.Y.) was injected under the skin over the right dorsal chest region. The drugs were formulated in Tween 80:0.15 NaCl and injected subcutaneously, with the exception of doxorubicin, which was injected intravenously. The treatment started on day 7 and continued 2x/week for 5-6 weeks. Drug doses were based on an established median toxic dose for the schedule applied. Controls were treated with the solvent only. The tumors were measured in three dimensions with a caliper, and tumor volume calculated. The care and treatment of experimental mice was in accordance with institutional guidelines.
# In FIG. 2, 9-AC represents 9-amino-20(RS)-camptothecin. The means of tumor volumes in cubic centimeters (cm^3) were plotted against time; S.D. (standard deviation) of the means was less than 15% of the value.
# [3] = test system: subcutaneous tumors; type: in vivo, mice
# [4] = test system: SW48 human colon cancer cell line; experiment: SW48 human colon cancer xenograft in immunodeficient mice (Example 5); type: in vivo, human (xenograft in immunodeficient NIH-1 mice)
# From the text: as §1
# In Example 5, a course of treatment was carried out with the SW48 human colon cancer cell line. This tumor line is extremely unresponsive to treatment. Liebowitz, A., et al., Cancer Res. 36:4562 (1976); and Fogh, J., et al., Human Tumor Cells in Vitro, J. Fogh, ed. Plenum Press, New York, pp. 115-159 (1975).
# It should be noted that the first course of treatments of the CASE and SW48 lines, described above, started with well-established tumors, averaging 0.2-0.25 cm^3 in volume. In Example 5, day=35 SW48 tumors (average size 2.5 cm^3), were selected for the first treatment with 9-amino-20(RS)-camptothecin. […]
# [5] = test system: CASE cell line; experiment: CASE human colon cancer xenograft in immunodeficient mice (Examples 3, 4, 6); type: in vivo, human (xenograft in immunodeficient NIH-1 mice)
# From the text: as §1
# In Example 3, the CASE cell line was employed.
# Example 4 illustrates the results of an experiment in which a second course of treatment followed a first course of treatment. On day 51 after tumor implantation, mice with CASE tumors and minimal disease received the second course of therapy. These mice received a total of 14 injections (doses) of 12.5 mg/kg body weight/dose (FIG. 4).
# (§2) Daily injections or 2 injections per week of 10,11-methylenedioxy-20(RS)-camptothecin (total doses 50-70 mg/kg of body weight) stopped the growth of day-7 CASE tumors for a period of 4-6 weeks in 6/6 mice. Five injections of 10,11-methylenedioxy-20(RS)-camptothecin sodium salt (10 mg/kg body weight/dose) stopped the growth of day-7 CASE tumors in 6/6 mice for a period of 4 weeks. Both drugs inhibited at 30 mg/kg body weight (total dose) the growth of metastases of human colon cancer in the liver of immunodeficient mice, and increased the survival of such mice by ~100% (from average of 23 to 46 days).
# [6] = test system: topoisomerase I; experiment: topoisomerase I-directed screens; type: biochemical
# [7] = test system: metastases of human colon cancer in the liver; experiment: metastases of human colon cancer in the liver of immunodeficient mice (Example 6); type: in vivo; conditions: 30 mg/kg body weight (total dose); for increase of survival: from average of 23 days; for average survival: increased from 23 days
# Description: as §2
# [8] = test system: colon cancer; conditions: cited from earlier work
# [9] = test system: mouse leukemias; conditions: in vivo; cited from earlier work
# [10] = test system: advanced incurable cancers; conditions: cited from earlier work
# [11] = first course, 12.5 mg/kg body weight
# [12] = daily or 2 injections per week, total doses 50-70 mg/kg
# [13] = daily treatment, total dose 25 mg/kg
# [14] = twice/week treatment, total dose 50 mg/kg
# [15] = five injections, 10 mg/kg body weight/dose
# [16] = patients with metastases to the liver
smiles,measurement,setting,value
CCC1(O)C(=O)OCc2c1cc1n(c2=O)Cc2cc3c(N)cccc3nc2-1 (racemic) [9-amino-20(RS)-camptothecin],gastrointestinal toxicity or sterile hemorrhagic cystitis,"[1]; second course, 50-75 mg/kg",no signs
same,toxicity of second course of treatment,"[1]; second course, 50-75 mg/kg body weight",more toxic than the first
same,Overall Toxicity,"[1]; twice/week treatment, total dose 150 mg/kg, 150 mg/kg",no overall toxicity
same,Overall Toxicity,"[1]; twice/week treatment, total dose 150 mg/kg, listed as 9-Amino-20(RS)-camptothecin, 150 mg/kg",none
same,Overall Toxicity: body weight loss,"[1]; twice/week treatment, total dose 175 mg/kg (cumulative)",≤ 20%
same,duration of remission (mean+S.D.),[2]; 10 mg/kg body weight/dose,62 ± 20 days
same,mice with no evidence of disease (NED) or minimal disease (tumor volume=0.1 cm^3),"[2]; 10 mg/kg/dose s.c., twice a week, 6 weeks",5/6
same,duration of remission (mean+S.D.),[2]; 12.5 mg/kg body weight/dose,56 ± 15 days
same,mice with NED or minimal disease,[2]; 12.5 mg/kg body weight/dose,6/6
same,reduction of tumor volume (average),"[2]; second course, average tumor size 8.3 cm^3, total dose 60 mg/kg",45%
same,therapeutic response (in words),"[3]; mouse, in vivo",completely reducing subcutaneous tumors; also recorded: complete reduction of subcutaneous tumors
same,long-term tumor-free survival (in excess of 7 months),"[4]; after second course, 75 mg/kg total dose",6/6
same,mice with NED or minimal disease,[4]; [11],6/6
same,reduction in the volume of the tumors (average),"[4]; first treatment of day 35 tumors (average 2.5 cm^3), 6 doses of 12.5 mg/kg, twice a week",91%
same,long-term tumor-free survival (in excess of 7 months),"[5]; CASE tumors, after second course",7/8
same,mice with NED or minimal disease,[5]; [11],6/6
same,mice with NED,"[5]; second course, total of 14 doses of 12.5 mg/kg",5/6
same,mice with minimal disease,"[5]; second course, total of 14 doses of 12.5 mg/kg, of 6 mice",the other had minimal disease
"CCC1(O)C(=O)OCc2c1cc1n(c2=O)Cc2cc3cc4c(cc3nc2-1)OCO4 (racemic) [10,11-methylenedioxy-20(RS)-camptothecin]",decrease of body weight,[1]; 70 mg/kg body weight (total dose),less than 10%
same,Overall Toxicity,"[1]; twice/week treatment, total dose 100 mg/kg, 100 mg/kg",no overall toxicity
same,Overall Toxicity,"[1]; twice/week treatment, total dose 100 mg/kg, listed as 10,11-Methylenedioxy-20(RS), 100 mg/kg",none
same,Overall Toxicity,"[1]; twice/week treatment, total dose 100 mg/kg, listed as 10,11-methylenedioxy-20(RS) camptothecin, 100 mg/kg",no overall toxicity
same,activity in topoisomerase I-directed screens,[6],highly active
same,therapeutic response (in words),"[3]; 100 mg/kg, two times per week",complete reduction of subcutaneous tumors
same,therapeutic response (in words),"[3]; 100 mg/kg, two times per week, listed as 10,11-methylenedioxy-20(RS) camptothecin",completely reducing subcutaneous tumors
same,growth of metastases of human colon cancer in the liver,[7],inhibited
same,increase of survival,[7],~ 100%
same,average survival,[7],46 days
same,mice in which growth of day-7 tumors stopped,[5]; [12],6/6
same,period for which growth of day-7 tumors stopped,[5]; [12],4-6 weeks
"CCC1(O)C(=O)OCc2c1cc1n(c2=O)Cc2cc3cc(N)ccc3nc2-1 (racemic) [10-amino-20(RS)-camptothecin, reference compound]",toxic deaths,[1]; 25 mg/kg body weight,toxic deaths of all animals
same,Overall Toxicity: body weight loss,"[1]; twice/week treatment, total dose 100 mg/kg",< 15%
"CCC(O)(C(=O)O)c1cc2n(c(=O)c1CO)Cc1cc3cc4c(cc3nc1-2)OCO4 (racemic) [sodium salt of 10,11-methylenedioxy-20(RS)-camptothecin]",toxic deaths,[1]; 62.5 mg/kg body weight,toxic deaths of all animals
same,Overall Toxicity,[1]; [13],animal deaths
same,Overall Toxicity: body weight loss,[1]; [13],< 10%
same,Overall Toxicity,"[1]; daily treatment, total dose 200 mg/kg",animal deaths
same,Overall Toxicity: body weight loss,[1]; [14],20%
same,Overall Toxicity,"[1]; twice/week treatment, total dose 62.5 mg/kg",animal deaths
same,activity in topoisomerase I-directed screens,[6],highly active
same,growth of metastases of human colon cancer in the liver,[7],inhibited
same,increase of survival,[7],~ 100%
same,average survival,[7],46 days
same,mice in which growth of day-7 tumors stopped,[5]; [15],6/6
same,period for which growth of day-7 tumors stopped,[5]; [15],4 weeks
O=c1[nH]cc(F)c(=O)[nH]1 [5-fluorouracil],effectiveness in treating colon cancer,"[8]; human, in vivo",only marginally effective
same,cases with temporary improvement,[8]; [16],≤ 25%
same,overall survival,[8]; [16],not significantly affected
same,growth-retardation of tumor implants,[2]; 80 mg/kg of body weight/dose,only marginal growth-retardation
"CC[C@@]1(O)C(=O)OCc2c1cc1n(c2=O)Cc2cc3ccccc3nc2-1 [20(S)-camptothecin, reference compound]",toxic deaths,[1]; 50 mg/kg body weight,toxic deaths of all animals
same,Overall Toxicity: body weight loss,"[1]; twice/week treatment, total dose 28 mg/kg",> 15%
same,Overall Toxicity,[1]; [14],animal deaths
same,Overall Toxicity,"[1]; twice/week treatment, total dose 70 mg/kg",animal deaths
same,activity against mouse leukemias,[9],effective against mouse leukemias
"CN(Cc1cnc2nc(N)nc(N)c2n1)c1ccc(C(=O)N[C@@H](CCC(=O)O)C(=O)O)cc1 [methotrexate, reference compound]",growth-retardation of tumor implants,[2]; 160 mg/kg body weight/dose,only marginal growth-retardation
CC[C@@](O)(C(=O)O)c1cc2n(c(=O)c1CO)Cc1cc3ccccc3nc1-2 [sodium salt of 20(S)-camptothecin],limiting factor (toxicity),[10]; patients with various cancers,Leukopenia
same,most prominent non-hematological complication,[10]; patients with various cancers,Hemorrhagic cystitis
same,gastrointestinal toxicity or sterile hemorrhagic cystitis observed among patients,[10]; patients,observed
same,clinical response,"[10]; several patients, some with colorectal cancer, unresponsive to previous treatments",temporary relief of the disease
same,median survival (in words),"[10]; several patients, some with colorectal cancer",marginal prolongation of median survival
